Source: patent US5929076A, “Cycloalkyl substituted imidazoles” (SmithKline Beecham Corporation, priority 1998, dated 1999)

System: human PGHS-2 protein expression in LPS stimulated human monocytes
Assay: Prostoglandin endoperoxide synthase-2 (PGHS-2) assay
Format: cell-based
Settings: rank order potency similar to that for inhibiting cytokine production
Procedure: The following assay describes a method for determining the inhibitory effects of compounds of Formula (I) on human PGHS-2 protein expression in LPS stimulated human monocytes. Method: Human peripheral blood monocytes were isolated from buffy coats by centrifugation through Ficoll and Percoll gradients. Cells were seeded at 2×10^6 /well in 24 well plates and allowed to adhere for 1 hour in RPMI supplemented with 1% human AB serum, 20 mM L-glutamine, Penicillin-Streptomycin and 10 mM HEPES. Compounds were added at various concentrations and incubated at 37° C. for 10 minutes. LPS was added at 50 ng/well (to induce enzyme expression) and incubated overnight at 37° C. The supernatant was removed and cells washed once in cold PBS. The cells were lysed in 100 μl of cold lysis buffer(50 mM Tris/HCl pH 7.5, 150 mM NaCl, 1% NP40, 0.5% sodium deoxycholate, 0.1% SDS, 300 ug/ml DNAse, 0.1% TRITON X-100, 1 mM PMSF, 1 mM leupeptin, 1 mM pepstatin). The lysate was centrifuged (10,000×g for 10 min. at 4° C.) to remove debris and the soluble fraction was subjected to SDS PAGE. analysis (12% gel). Protein separated on the gel were transferred onto nitrocellulose membrane by electrophoretic means for 2 hours at 60 volts. The membrane was pretreated for one hour in PBS/0.1% Tween 20 with 5% non-fat dry milk. […]

Row | Compound | inhibition of LPS induced PGHS-2 protein expression
1 | Fc1ccc(-c2nc3n(c2-c2ccncc2)CCS3)cc1 [6-(4-Fluorophenyl)-2,3-dihydro-5-(4-pyridinyl)imidazo[2,1-b]thiazole] | active
2 | C[C@@H]1C[C@H]2[C@@H]3CCC4=CC(=O)C=C[C@]4(C)[C@@]3(F)[C@@H](O)C[C@]2(C)[C@@]1(O)C(=O)CO [Dexamethasone] | active
